Laboratory results published in patent US7271173B2, “Mixed kappa/mu opioids and uses thereof” (The McLean Hospital Corporation, priority 2002, dated 2007).
Where two headings read alike, the source gives them in different places.

What was measured:
[1] = target: T1, human delta opioid receptor (Homo sapiens, UniProt P41143); assay: Radioligand binding, [3H]naltrindole (δ), CHO membranes
T1 construct: expressed in transfected cells; host or cells: CHO cells, stably transfected
Source text: (§1) Compounds can be characterized in radioligand receptor binding assays, using ligands that are specific for the mu, delta and kappa receptors. The binding assays may utilize guinea pig brain membranes or stably transfected Chinese Hamster Ovary (CHO) cells expressing each of the three opioid receptors. Membranes can be isolated from CHO cells that stably express either the human mu, delta or kappa opioid receptors. At approximately 80% confluence, the cells are harvested by the use of a cell scraper. The cells and media from the plates are centrifuged at 200×g for 10 mm at 4° C.; resuspended in 50 mM Tris-HCl, pH 7.5; homogenized by the use of a Polytron; centrifuged at 48,000×g for 20 mm at 4° C.; and resuspended in 50 mM Tris-HCl, pH 7.5, at a protein concentration of 5-10 mg/ml, as determined by the Bradford method. The membranes are stored frozen, at −80° C. until use.
(§2) Cell membranes are incubated at 25° C. with the radiolabeled ligands in a final volume of 1 ml of 50 mM Tris-HCl, pH 7.5. […] Nonspecific binding is measured by inclusion of 1 μM naloxone. The binding can be terminated by filtering the samples through Schleicher & Scheull No. 32 glass fiber filters using a Brandel 48-well cell harvester. The filters are subsequently washed three times with 3 ml of cold 50 mM Tris-HCl, pH 7.5, and can be counted in 2 ml of Ecoscint A scintillation fluid. For [^3H]U69,593 binding, the filters are soaked in 0.1% polyethylenimine for at least 30 minutes before use. IC50 values can be calculated by a least squares fit to a logarithm-probit analysis. Ki values of unlabeled compounds are calculated from the equation Ki=(IC50)/1+S where S=(concentration of radioligand) (Kd of radioligand). Cheng and Prusoff, Biochem. Pharmacol. 22:3099 (1973). Alternatively, guinea pig brain membranes can be prepared and used as previously described in Neumeyer, et al., J. Med. Chem. 43:114 (2000).
(§3) As described in Example 12, 0.5 milligrams of protein per sample was incubated with 12 different concentrations of the compounds in the presence of receptor-specific radioligands at 25° C. in a final volume of 1 mL (50 mM Tris-HCl buffer, pH 7.5). Nonspecific binding was determined using 10 μM naloxone. The data in Table 1 are the mean values SEM from three experiments performed in triplicate.
as §3, with “Four 10-ketomorphinan compounds, see Table 2, were evaluated for their affinity and selectivity at the three opioid receptors. As” for “As”, “Table 2” for “Table 1”

human mu opioid receptor = target: T2, human mu opioid receptor (Homo sapiens, UniProt P35372); assay: Radioligand binding, [3H]DAMGO (μ), CHO membranes
T2 construct: expressed in transfected cells; host or cells: CHO cells, stably transfected
Source text: as §1, §2, §3
as §3, with “Four 10-ketomorphinan compounds, see Table 2, were evaluated for their affinity and selectivity at the three opioid receptors. As” for “As”, “Table 2” for “Table 1”

[2] = target: T3, human kappa opioid receptor (Homo sapiens, UniProt P41145); assay: Radioligand binding, [3H]U69,593 (κ), CHO membranes; details: for Selectivity δ:κ / Selectivity μ:κ: ratio of Ki values
T3 construct: expressed in transfected cells; host or cells: CHO cells, stably transfected
Source text: as §1, §2, §3
as §3, with “Four 10-ketomorphinan compounds, see Table 2, were evaluated for their affinity and selectivity at the three opioid receptors. As” for “As”, “Table 2” for “Table 1”

kappa receptor = target: T4, kappa receptor (Homo sapiens, UniProt P41145); assay: [35S]GTPgammaS binding assay, kappa receptor; assay type: biochemical; details: CHO membranes
T4 construct: expressed in transfected cells; host or cells: CHO cell lines
Experimental: (§4) Membranes from the CHO cell lines, expressing either the mu, delta or kappa receptor, are incubated with 12 concentrations of each opioid for 60 minutes at 30° C. in a final volume of 0.5 ml of assay buffer (50 mM Tris-HCl, 3 mM MgCl2, 0.2 mM EGTA, 100 mM NaCl, pH 7.5) containing 3 μM GDP and 0.08 nM [^35S]GTPgammaS. Basal binding can be determined in the presence of GDP and the absence of opioids, and nonspecific binding can be determined by including 10 μM unlabeled […]. The incubation can be terminated by filtration under vacuum through glass fiber filters, followed by three washes with 3 ml ice-cold 50 mM Tris-HCl, pH 7.5. Samples can be allowed to equilibrate overnight and can be counted in 2 ml Ecoscint A scintillation fluid for 2 minutes in a liquid scintillation counter.
(§5) For [^35S]GTPgammaS binding assays, percent stimulation of [^35S]GTPgammaS binding is defined as [(opioid-stimulated binding-basal binding) basal binding]×100. Percent stimulation is plotted as a function of opioid concentration (log scale), and EC50 and Emax values are determined by linear regression analysis. All data is compared across conditions using ANOVA and non-paired two-tailed Student's tests.

mu receptor = target: T5, mu receptor (Homo sapiens, UniProt P35372); assay: [35S]GTPgammaS binding assay, mu receptor; assay type: biochemical; details: CHO membranes
T5 construct: expressed in transfected cells; host or cells: CHO cell lines
Experimental: as §4, §5

[3] = read-out: Ki (nM) ± SE [3H]Naltrindole (δ), Table 1, CHO membranes, 25° C., mean ± SEM of three experiments in triplicate
[4] = read-out: Ki (nM) ± SE [3H]DAMGO (μ), Table 1, CHO membranes, 25° C., mean ± SEM of three experiments in triplicate
[5] = Table 1, CHO membranes, 25° C., mean ± SEM of three experiments in triplicate, read-out: Ki (nM) ± SE [3H]U69,593 (κ)
[6] = Table 1, CHO membranes, 25° C., mean ± SEM of three experiments in triplicate
[7] = read-out: Ki (nM) ± SE [3H]Naltrindole (δ), Table 2, CHO membranes, 25° C., mean ± SEM of three experiments in triplicate

T2 sequence (P35372 whole entry): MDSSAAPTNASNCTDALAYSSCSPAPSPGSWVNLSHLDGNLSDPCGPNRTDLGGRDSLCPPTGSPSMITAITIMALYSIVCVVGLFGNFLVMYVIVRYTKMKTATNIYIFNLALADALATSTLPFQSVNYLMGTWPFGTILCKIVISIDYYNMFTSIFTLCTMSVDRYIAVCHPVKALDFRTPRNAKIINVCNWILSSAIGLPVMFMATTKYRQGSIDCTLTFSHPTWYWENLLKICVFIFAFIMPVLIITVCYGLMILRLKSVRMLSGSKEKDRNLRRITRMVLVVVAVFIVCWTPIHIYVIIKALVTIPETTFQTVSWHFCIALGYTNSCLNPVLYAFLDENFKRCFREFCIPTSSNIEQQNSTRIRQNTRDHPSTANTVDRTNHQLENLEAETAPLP
T3 sequence (P41145 whole entry): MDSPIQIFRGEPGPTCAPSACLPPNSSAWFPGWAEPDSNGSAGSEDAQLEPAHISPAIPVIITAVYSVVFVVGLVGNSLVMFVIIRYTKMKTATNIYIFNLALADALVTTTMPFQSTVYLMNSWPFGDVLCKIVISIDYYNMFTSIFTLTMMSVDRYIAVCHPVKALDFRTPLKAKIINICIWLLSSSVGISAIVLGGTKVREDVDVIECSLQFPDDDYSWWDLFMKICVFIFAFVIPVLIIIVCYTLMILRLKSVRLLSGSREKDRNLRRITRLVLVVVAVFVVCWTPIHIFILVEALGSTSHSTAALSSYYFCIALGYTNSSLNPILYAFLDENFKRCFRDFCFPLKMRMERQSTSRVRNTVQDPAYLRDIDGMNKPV
T4 sequence (P41145 whole entry): as above
T1 sequence (P41143 whole entry): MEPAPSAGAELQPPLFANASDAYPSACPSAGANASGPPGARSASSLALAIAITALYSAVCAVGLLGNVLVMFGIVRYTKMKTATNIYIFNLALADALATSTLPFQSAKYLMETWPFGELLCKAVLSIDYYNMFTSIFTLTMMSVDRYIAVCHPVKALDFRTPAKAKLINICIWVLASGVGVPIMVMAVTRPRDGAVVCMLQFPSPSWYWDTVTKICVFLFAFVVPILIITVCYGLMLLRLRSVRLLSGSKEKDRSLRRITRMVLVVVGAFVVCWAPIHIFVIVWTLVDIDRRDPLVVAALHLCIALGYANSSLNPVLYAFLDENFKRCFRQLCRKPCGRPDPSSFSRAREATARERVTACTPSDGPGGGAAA
T5 sequence (P35372 whole entry): as the sequence (P35372 whole entry) above

| Structure (SMILES) | Ki [1, 3] [nM] | Ki (human mu opioid receptor; [4]) [nM] | Ki [2, 5] [nM] | Selectivity δ:κ ([2]; Table 1) | Selectivity μ:κ ([2]; Table 1) | Ki [1, 7] [nM] | Ki (human mu opioid receptor) [nM] | Ki [2] [nM] | Selectivity δ:κ ([2]; Table 2) | Selectivity μ:κ ([2]; Table 2) | further results |
| --- | --- | --- | --- | --- | --- | --- | --- | --- | --- | --- | --- |
| CN1CC[C@]23CCCC[C@H]2[C@H]1Cc1cc2sc(N)nc2cc13 [Compound 69] | 1100 ± 30 | 130 ± 5.8 | 29 | 38 | 4.5 | – | – | – | – | – | – |
| CN1CC[C@]23CCCC[C@H]2[C@H]1Cc1c3ccc2nc(N)sc12 [Compound 70] | – | – | 6.4 ± 0.53 | 30 | 0.17 | – | – | – | – | – | Ki [1, 6]: 190 ± 9.7 nM; Ki (human mu opioid receptor; [6]): 1.1 ± 0.13 nM |
| Nc1nc2cc3c(cc2s1)C[C@@H]1[C@@H]2CCCC[C@]32CCN1CC1CC1 [Compound 71] | 29 ± 2 | 1.5 ± 0.21 | 0.049 ± 0.0046 | 590 | 30 | – | – | – | – | – | Efficacy (agonist, partial agonist, antagonist) at κ receptor (kappa receptor): κ and μ agonist; Relative potency κ versus μ (kappa receptor): more potent at κ than at μ; Efficacy (agonist, partial agonist, antagonist) at μ receptor (mu receptor): κ and μ agonist |
| Nc1nc2cc3c(cc2s1)C[C@@H]1[C@@H]2CCCC[C@]32CCN1CC1CCC1 [Compound 72] | 230 ± 21 | 7.1 ± 0.47 | 0.79 ± 0.02 | 290 | 9.0 | – | – | – | – | – | Efficacy (agonist, partial agonist, antagonist) at κ receptor (kappa receptor): κ agonist; Efficacy (agonist, partial agonist, antagonist) at μ receptor (mu receptor): weak agonist and antagonist activity |
| C#CCN1CC[C@]23CCCC[C@H]2[C@H]1C(=O)c1ccc(O)cc13 [Compound 73, 3-Hydroxy-10-keto-N-propargylmorphinan] | – | – | – | – | – | 2300 ± 190 | 190 ± 4.4 | 60 ± 1.7 | 38 | 3.2 | – |
| O=C1c2ccc(O)cc2[C@@]23CCCC[C@H]2[C@@H]1N(CC1CCC1)CC3 [Compound 74, 3-Hydroxy-10-keto-N-cyclobutylmethylmorphinan] | – | – | – | – | – | 260 ± 55 | – | – | 540 | 6.9 | Ki (human mu opioid receptor; read-out: Ki (nM) ± SE [3H]DAMGO (μ), Table 2, CHO membranes, 25° C., mean ± SEM of three experiments in triplicate): 3.3 ± 0.26 nM; Ki ([2]; Table 2, CHO membranes, 25° C., mean ± SEM of three experiments in triplicate, read-out: Ki (nM) ± SE [3H]U69,593 (κ)): 0.48 ± 0.027 nM |
| O=C1c2ccc(O)cc2[C@@]23CCCC[C@H]2[C@@H]1N(CCCF)CC3 [Compound 75, 3-Hydroxy-10-keto-N-(3-fluoropropyl)morphinan] | – | – | – | – | – | 690 ± 171 | 20 ± 4.8 | – | – | – | – |
| COCCN1CC[C@]23CCCC[C@H]2[C@H]1C(=O)c1ccc(O)cc13 [Compound 76, 3-Hydroxy-10-keto-N-(2-methoxyethyl)morphinan] | – | – | – | – | – | – | 90 ± 10 | 17 ± 0.6 | 590 | 5.3 | Ki [1]: > 10000 nM |
| O=C1c2ccc(O)cc2[C@@]23CCCC[C@H]2[C@@H]1N(CCc1ccccc1)CC3 [Compound 77, 3-Hydroxy-10-keto-N-(2-phenylethyl)morphinan] | – | – | – | – | – | 9.7 ± 0.34 | 0.63 ± 0.07 | 7.7 ± 0.19 | 1.3 | 0.08 | – |
